Experimental data taken from patent US20210030698A1, “GEL CONTAINING ZERUMBONE FROM BITTER GINGER (ZINGIBER ZERUMBET) FOR CURATIVE TREATMENT OF DIABETIC ULCERS” (INSTITUTO NACIONAL DE PESQUISAS DA AMAZÔNIA ? INPA, priority 2018, published 2021).

Assays:
[1] = system: rat paw edema; test: anti-inflammatory activity, carrageenan rat paw edema; assay type: in vivo; settings: croton oil and arachidonic acid models
[2] = system: mice; test: hot plate test pain model; assay type: in vivo; settings: hot plate 49-54° C.
[3] = barbiturate sleep (sodium pentobarbital); assay type: in vivo; settings: sodium pentobarbital (nembutal)
[4] = system: mice; test: analgesic activity in chemical and thermal models of pain (acetic acid, formalin, capsaicin); assay type: in vivo
[5] = system: Artemia salina; test: in vitro cytotoxicity test on Artemia salina
Method: In the in vitro cytotoxicity tests, zerumbone produced mortality for Artemia salina of CL50—45 ug/ml, showing a positive correlation between antitumor and anti-inflammatory activities.

Compound: C/C1=C\CC(C)(C)/C=C/C(=O)/C(C)=C/CC1 [zerumbone]
- anti-inflammatory effect, inhibition of carrageenan inflammatory response in rat paw edema [1]: significant and dose-dependent anti-inflammatory effects
- latency of the animals in the hot plate test [2]: significantly increased
- barbiturate sleep recovery time (T.R) [3]: approximately 600 minutes
- analgesic activity against pain models acetic acid, formalin and capsaicin ([4]; administered orally and intraperitoneally): significant, dose-dependent analgesic activity
- analgesic effect in chemical and thermal models of pain ([4]; doses of 250 to 1000 mg/kg, mice): potent analgesic effect
- CL50 mortality for Artemia salina [5]: 45 µg/mL
